From ChEMBL document CHEMBL5291721, “A preclinical secondary pharmacology resource illuminates target-adverse drug reaction associations of marketed drugs” (Nat Commun, 2023)

What was measured:
[1] = target: T1, Alpha-2A adrenergic receptor (Homo sapiens, UniProt P08913)
T1 sequence (P08913 whole entry): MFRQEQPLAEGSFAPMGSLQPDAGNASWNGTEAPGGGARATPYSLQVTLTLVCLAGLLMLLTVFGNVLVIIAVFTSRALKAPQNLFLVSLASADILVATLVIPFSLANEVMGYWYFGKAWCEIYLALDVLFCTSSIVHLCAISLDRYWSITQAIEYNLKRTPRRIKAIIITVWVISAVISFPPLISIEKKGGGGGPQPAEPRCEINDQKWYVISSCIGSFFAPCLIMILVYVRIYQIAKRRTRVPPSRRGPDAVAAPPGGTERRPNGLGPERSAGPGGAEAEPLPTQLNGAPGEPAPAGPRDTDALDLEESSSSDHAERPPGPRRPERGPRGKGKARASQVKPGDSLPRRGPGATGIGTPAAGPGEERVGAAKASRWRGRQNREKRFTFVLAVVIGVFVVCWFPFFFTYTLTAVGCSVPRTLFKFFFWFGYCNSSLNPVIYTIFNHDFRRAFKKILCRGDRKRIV

Histamine H2 receptor = Histamine H2 receptor (Homo sapiens, UniProt P25021)
[2] = target: T2, 5-hydroxytryptamine receptor 1A (Homo sapiens, UniProt P08908)
T2 sequence (P08908 whole entry): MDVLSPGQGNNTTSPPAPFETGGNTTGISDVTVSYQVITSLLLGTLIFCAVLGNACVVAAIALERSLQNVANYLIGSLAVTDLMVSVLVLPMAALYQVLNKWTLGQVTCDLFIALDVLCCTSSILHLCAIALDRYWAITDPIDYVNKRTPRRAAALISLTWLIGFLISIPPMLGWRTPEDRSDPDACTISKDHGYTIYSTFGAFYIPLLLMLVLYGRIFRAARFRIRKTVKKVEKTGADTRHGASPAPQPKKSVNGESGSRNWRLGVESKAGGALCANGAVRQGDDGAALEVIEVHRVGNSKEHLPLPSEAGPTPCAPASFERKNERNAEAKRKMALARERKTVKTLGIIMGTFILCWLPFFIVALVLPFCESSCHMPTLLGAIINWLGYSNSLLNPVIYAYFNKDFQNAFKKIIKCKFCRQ

[3] = target: Voltage-dependent N-type calcium channel subunit alpha-1B (Rattus norvegicus, UniProt Q02294); format: functional
Estrogen receptor beta = Estrogen receptor beta (Homo sapiens, UniProt Q92731)
Substance-P receptor = Substance-P receptor (Homo sapiens, UniProt P25103)
[4] = target: Beta-3 adrenergic receptor (Homo sapiens, UniProt P13945)
[5] = target: Gamma-aminobutyric acid receptor subunit alpha-1/alpha-2/beta-2/gamma-2 (Homo sapiens, UniProt P14867+P18507+P47869+P47870); format: functional, cell-based
[6] = target: 5-hydroxytryptamine receptor 2A (Homo sapiens, UniProt P28223)
[7] = target: T3, Peroxisome proliferator-activated receptor gamma (Homo sapiens, UniProt P37231); format: functional
T3 sequence (P37231 whole entry): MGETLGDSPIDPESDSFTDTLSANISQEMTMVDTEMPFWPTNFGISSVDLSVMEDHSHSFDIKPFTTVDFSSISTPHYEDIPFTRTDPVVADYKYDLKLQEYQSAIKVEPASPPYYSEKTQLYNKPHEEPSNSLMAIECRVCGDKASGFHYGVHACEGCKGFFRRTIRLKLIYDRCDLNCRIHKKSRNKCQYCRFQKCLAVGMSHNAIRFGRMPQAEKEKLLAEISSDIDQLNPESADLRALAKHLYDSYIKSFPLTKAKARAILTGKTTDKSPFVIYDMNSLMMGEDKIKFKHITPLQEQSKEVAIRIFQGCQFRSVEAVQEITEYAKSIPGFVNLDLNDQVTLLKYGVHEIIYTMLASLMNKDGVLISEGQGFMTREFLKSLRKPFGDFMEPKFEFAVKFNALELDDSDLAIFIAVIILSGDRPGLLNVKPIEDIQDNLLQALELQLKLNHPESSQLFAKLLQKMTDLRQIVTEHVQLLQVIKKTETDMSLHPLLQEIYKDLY

[8] = target: T3, Peroxisome proliferator-activated receptor gamma; format: functional; remark: listed apart in the source
D(1A) dopamine receptor = D(1A) dopamine receptor (Homo sapiens, UniProt P21728)
Also: assay procedure not described here.

Chain of D(1A) dopamine receptor (P21728 whole entry): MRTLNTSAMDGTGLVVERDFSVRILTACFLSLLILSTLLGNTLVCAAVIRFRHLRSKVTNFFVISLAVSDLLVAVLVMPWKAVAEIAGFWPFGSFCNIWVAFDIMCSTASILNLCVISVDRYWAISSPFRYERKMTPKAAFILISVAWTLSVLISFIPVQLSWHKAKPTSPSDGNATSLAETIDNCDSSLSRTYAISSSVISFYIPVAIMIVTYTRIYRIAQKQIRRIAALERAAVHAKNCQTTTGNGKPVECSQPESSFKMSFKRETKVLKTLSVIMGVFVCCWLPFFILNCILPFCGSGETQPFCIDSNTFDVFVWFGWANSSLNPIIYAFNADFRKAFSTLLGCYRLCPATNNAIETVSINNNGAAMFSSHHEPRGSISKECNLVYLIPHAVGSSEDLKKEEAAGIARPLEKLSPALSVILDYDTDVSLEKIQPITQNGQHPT
Chain of Substance-P receptor (P25103 whole entry): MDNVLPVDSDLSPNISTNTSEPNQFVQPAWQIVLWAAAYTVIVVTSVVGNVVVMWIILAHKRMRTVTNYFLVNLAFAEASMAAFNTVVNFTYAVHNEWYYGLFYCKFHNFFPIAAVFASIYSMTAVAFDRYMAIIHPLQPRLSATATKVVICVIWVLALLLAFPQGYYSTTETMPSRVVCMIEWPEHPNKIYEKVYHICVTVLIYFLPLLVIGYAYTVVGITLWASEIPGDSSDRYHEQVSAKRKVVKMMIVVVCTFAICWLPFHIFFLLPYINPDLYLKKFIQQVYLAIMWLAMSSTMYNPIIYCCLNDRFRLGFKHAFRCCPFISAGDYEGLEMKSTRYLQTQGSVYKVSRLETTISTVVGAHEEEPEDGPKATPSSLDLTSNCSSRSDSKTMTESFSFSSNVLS
Chain of Gamma-aminobutyric acid receptor subunit alpha-1/alpha-2/beta-2/gamma-2 (P14867 whole entry): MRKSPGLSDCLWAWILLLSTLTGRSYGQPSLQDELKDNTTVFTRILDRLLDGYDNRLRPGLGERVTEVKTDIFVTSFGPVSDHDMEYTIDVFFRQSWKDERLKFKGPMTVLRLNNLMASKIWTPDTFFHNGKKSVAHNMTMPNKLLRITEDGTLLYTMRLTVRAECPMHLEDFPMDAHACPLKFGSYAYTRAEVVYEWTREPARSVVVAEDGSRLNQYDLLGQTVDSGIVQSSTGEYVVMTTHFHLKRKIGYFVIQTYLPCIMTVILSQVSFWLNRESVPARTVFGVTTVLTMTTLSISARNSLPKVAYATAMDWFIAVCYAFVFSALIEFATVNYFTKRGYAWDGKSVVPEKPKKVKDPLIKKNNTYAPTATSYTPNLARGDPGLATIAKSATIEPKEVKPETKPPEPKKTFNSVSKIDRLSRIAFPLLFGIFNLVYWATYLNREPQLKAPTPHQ
Chain of Gamma-aminobutyric acid receptor subunit alpha-1/alpha-2/beta-2/gamma-2 (P47870 whole entry): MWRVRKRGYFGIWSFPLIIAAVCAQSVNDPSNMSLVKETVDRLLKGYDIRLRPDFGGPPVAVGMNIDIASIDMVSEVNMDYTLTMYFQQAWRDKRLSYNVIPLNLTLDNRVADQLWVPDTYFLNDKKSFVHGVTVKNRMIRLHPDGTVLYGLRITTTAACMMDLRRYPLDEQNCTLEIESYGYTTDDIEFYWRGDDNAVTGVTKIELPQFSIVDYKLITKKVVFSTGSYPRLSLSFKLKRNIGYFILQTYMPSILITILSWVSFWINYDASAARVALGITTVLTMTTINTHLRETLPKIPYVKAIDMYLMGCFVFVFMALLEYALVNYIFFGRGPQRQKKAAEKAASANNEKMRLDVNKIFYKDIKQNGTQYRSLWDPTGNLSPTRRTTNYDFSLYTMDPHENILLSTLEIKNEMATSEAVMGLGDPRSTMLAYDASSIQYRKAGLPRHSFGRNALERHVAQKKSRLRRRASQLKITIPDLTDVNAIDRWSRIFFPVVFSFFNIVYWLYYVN
Chain of Gamma-aminobutyric acid receptor subunit alpha-1/alpha-2/beta-2/gamma-2 (P18507 whole entry): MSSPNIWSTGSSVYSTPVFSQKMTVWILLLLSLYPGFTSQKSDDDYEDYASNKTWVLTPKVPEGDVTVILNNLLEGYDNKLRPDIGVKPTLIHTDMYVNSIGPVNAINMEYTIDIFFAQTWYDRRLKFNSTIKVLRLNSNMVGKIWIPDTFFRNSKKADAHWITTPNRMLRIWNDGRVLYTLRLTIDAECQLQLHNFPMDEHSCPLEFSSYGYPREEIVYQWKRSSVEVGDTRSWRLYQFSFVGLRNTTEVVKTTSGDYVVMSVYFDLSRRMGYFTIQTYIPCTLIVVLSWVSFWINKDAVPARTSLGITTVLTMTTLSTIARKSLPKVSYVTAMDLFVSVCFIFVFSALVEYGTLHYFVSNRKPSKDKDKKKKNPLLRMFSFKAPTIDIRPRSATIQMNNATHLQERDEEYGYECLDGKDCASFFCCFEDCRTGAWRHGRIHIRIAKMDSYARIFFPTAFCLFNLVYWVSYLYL
Chain of Gamma-aminobutyric acid receptor subunit alpha-1/alpha-2/beta-2/gamma-2 (P47869 whole entry): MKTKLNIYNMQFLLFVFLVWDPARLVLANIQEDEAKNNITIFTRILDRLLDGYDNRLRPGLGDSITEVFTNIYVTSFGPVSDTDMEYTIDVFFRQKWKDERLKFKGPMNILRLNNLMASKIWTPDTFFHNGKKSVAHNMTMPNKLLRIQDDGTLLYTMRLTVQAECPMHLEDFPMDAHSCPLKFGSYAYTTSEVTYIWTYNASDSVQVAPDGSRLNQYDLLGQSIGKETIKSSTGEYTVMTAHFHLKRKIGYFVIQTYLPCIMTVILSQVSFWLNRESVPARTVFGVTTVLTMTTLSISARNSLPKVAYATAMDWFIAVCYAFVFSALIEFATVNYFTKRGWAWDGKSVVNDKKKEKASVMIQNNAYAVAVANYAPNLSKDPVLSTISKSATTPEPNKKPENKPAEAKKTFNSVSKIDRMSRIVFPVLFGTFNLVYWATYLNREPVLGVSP
Chain of Beta-3 adrenergic receptor (P13945 whole entry): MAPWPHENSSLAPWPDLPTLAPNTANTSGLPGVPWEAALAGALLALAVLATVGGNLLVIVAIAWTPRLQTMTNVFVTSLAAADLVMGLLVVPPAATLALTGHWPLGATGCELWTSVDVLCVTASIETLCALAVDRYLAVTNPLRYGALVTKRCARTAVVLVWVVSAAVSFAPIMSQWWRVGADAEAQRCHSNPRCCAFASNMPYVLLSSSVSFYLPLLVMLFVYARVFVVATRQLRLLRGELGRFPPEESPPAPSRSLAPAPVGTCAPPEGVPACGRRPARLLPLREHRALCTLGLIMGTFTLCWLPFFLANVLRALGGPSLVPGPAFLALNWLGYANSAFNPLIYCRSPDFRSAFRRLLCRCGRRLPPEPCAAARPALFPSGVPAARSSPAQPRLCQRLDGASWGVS
Chain of 5-hydroxytryptamine receptor 2A (P28223 whole entry): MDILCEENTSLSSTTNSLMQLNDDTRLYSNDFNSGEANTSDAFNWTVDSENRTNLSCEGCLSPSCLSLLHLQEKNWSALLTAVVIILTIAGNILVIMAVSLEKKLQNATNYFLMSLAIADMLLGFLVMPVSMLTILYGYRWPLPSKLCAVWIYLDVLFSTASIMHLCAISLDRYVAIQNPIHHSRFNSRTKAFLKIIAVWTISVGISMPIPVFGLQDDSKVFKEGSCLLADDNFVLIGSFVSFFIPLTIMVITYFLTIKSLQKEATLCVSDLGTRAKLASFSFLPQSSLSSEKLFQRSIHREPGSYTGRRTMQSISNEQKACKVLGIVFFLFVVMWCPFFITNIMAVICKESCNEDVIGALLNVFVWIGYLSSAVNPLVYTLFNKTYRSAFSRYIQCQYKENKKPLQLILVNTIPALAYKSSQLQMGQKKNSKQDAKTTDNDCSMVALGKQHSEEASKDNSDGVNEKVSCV
Chain of Histamine H2 receptor (P25021 whole entry): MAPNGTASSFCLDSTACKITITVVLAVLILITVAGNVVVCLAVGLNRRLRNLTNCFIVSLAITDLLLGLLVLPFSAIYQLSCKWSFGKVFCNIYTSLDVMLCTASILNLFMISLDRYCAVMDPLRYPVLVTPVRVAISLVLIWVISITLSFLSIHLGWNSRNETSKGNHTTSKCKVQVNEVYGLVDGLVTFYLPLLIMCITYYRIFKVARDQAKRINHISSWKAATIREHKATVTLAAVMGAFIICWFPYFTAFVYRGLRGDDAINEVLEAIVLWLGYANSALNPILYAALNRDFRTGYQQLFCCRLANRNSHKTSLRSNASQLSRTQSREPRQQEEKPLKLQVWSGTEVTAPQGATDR
Chain of Estrogen receptor beta (Q92731 whole entry): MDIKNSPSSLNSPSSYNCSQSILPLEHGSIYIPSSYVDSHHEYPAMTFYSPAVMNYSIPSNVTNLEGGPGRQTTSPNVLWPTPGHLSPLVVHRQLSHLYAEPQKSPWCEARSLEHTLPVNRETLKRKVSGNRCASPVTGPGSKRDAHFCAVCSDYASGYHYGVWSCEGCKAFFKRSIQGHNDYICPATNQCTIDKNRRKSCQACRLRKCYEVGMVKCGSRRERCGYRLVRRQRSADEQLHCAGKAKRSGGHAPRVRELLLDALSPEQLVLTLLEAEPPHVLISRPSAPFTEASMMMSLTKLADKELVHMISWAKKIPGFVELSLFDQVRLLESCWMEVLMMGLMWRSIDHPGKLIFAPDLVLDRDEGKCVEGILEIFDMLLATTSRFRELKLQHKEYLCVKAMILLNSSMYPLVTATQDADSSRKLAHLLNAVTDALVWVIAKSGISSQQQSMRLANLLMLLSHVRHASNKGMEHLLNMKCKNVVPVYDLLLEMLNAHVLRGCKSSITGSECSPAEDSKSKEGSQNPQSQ

Compound	AC50 [2] [µM]	AC50 [5] [µM]	AC50 [7] [µM]	AC50 [8] [µM]	also measured
NCCCC(O)(P(=O)(O)O)P(=O)(O)O [ALENDRONIC ACID]	> 10				AC50 [1]: > 10 µM; AC50 (Histamine H2 receptor): > 10 µM; AC50 [3]: > 10 µM; AC50 (Estrogen receptor beta): > 30 µM; AC50 (Substance-P receptor): > 10 µM; AC50 [4]: > 30 µM
O=C(CCCN1CCC(n2c(O)nc3ccccc32)CC1)c1ccc(F)cc1 [BENPERIDOL]		20			AC50 [6]: 0.0035 µM
CS(=O)(=O)OCCCCOS(C)(=O)=O [BUSULFAN]		> 30	> 30	> 30	
CCCCC1(CC)C(=O)NC(=O)NC1=O [BUTETHAL]		> 30	> 30	> 30	
C=CC1=C(C(=O)O)N2C(=O)[C@@H](NC(=O)/C(=N\OCC(=O)O)c3csc(N)n3)[C@H]2SC1 [CEFIXIME]			> 30	> 30	
CO[C@@]1(NC(=O)Cc2cccs2)C(=O)N2C(C(=O)O)=C(COC(N)=O)CS[C@@H]21 [CEFOXITIN]		> 30	11	> 30	
CCN(CC)CCOC(=O)c1ccc(N)cc1Cl [CHLOROPROCAINE]		> 30	> 30	> 30	
COc1cccc2c1C(=O)c1c(O)c3c(c(O)c1C2=O)C[C@@](O)(C(C)=O)C[C@@H]3O[C@H]1C[C@H](N)[C@H](O)[C@H](C)O1 [DAUNORUBICIN]			> 10	> 30	
CCCCC[C@H](O)/C=C/[C@H]1[C@H](O)CC(=O)[C@@H]1C/C=C\CCCC(=O)O [DINOPROSTONE]					AC50 (D(1A) dopamine receptor): > 30 µM
CCCN(CC)C(CC)C(=O)Nc1c(C)cccc1C (stereo unspecified) [ETIDOCAINE]	> 30				
O=C(O)c1ccccc1OP(=O)(O)O [FOSFOSAL]		> 30	> 30	> 30	
Nc1ccn([C@@H]2O[C@H](CO)[C@@H](O)C2(F)F)c(=O)n1 [GEMCITABINE]	> 10				
Nc1nc2c(c(=O)[nH]1)N(C=O)C(CNc1ccc(C(=O)N[C@@H](CCC(=O)O)C(=O)O)cc1)CN2 (stereo partly specified) [LEUCOVORIN]		> 30	> 30	> 30	
O=C1CN=C(c2ccccc2)c2cc(Cl)ccc2N1 [NORDAZEPAM]	> 10				AC50 [1]: > 10 µM; AC50 (Histamine H2 receptor): > 10 µM; AC50 [3]: > 10 µM; AC50 (Estrogen receptor beta): > 30 µM; AC50 (Substance-P receptor): > 10 µM; AC50 (D(1A) dopamine receptor): > 10 µM; AC50 [4]: > 30 µM
CC(CCc1ccccc1)NC(C)C(O)c1ccc(O)cc1 (stereo unspecified) [NYLIDRIN]	3.38				AC50 [1]: 9.39 µM; AC50 (Histamine H2 receptor): > 10 µM; AC50 [6]: 2.5 µM; AC50 [3]: > 10 µM; AC50 (Substance-P receptor): > 10 µM; AC50 (D(1A) dopamine receptor): > 10 µM; AC50 [4]: > 30 µM
CCn1cc(C(=O)O)c(=O)c2cc(F)c(N3CCN(C)CC3)cc21 [PEFLOXACIN]		> 30	> 30	> 30	
CC(=O)c1ccc2c(c1)N(CCCN1CCC(CCO)CC1)c1ccccc1S2 [PIPERACETAZINE]	0.0421				AC50 [6]: 0.012 µM
C[n+]1ccccc1/C=N/O [PRALIDOXIME]		> 30			
CCCNC(C)C(=O)Nc1ccccc1C (stereo unspecified) [PRILOCAINE]		> 30	> 30	> 30	
CC(C)CC(N(C)C)C1(c2ccc(Cl)cc2)CCC1 (stereo unspecified) [SIBUTRAMINE]	> 10				AC50 [1]: > 10 µM; AC50 (Histamine H2 receptor): > 10 µM; AC50 [3]: > 10 µM; AC50 (Estrogen receptor beta): > 30 µM; AC50 (Substance-P receptor): > 10 µM; AC50 (D(1A) dopamine receptor): > 10 µM; AC50 [4]: > 30 µM
[H]/N=C(/N)N[C@H]1[C@H](O)[C@@H](O)[C@H](O[C@@H]2O[C@@H](C)[C@](O)(C=O)[C@H]2O[C@@H]2O[C@@H](CO)[C@H](O)[C@@H](O)[C@@H]2NC)[C@@H](N/C(N)=N\[H])[C@@H]1O [STREPTOMYCIN]	> 10				AC50 [1]: > 10 µM; AC50 (Histamine H2 receptor): > 10 µM; AC50 [3]: > 10 µM; AC50 (Estrogen receptor beta): > 30 µM; AC50 (Substance-P receptor): > 10 µM; AC50 (D(1A) dopamine receptor): > 10 µM; AC50 [4]: > 30 µM
COc1cc2c(Nc3ccc(Br)cc3F)ncnc2cc1OCC1CCN(C)CC1 [VANDETANIB]		> 30	> 30	> 30	
COc1ccc(C(CN(C)C)C2(O)CCCCC2)cc1 (stereo unspecified) [VENLAFAXINE]	> 10				AC50 [1]: > 10 µM; AC50 [3]: > 10 µM
